The results in this text go back to patent US20230192705A1, “SHP2 INHIBITORS, COMPOSITIONS AND USES THEREOF” (Betta Pharmaceuticals Co., Ltd, priority 2020, published 2023).

Where two headings read alike, the source gives them in different places.

For one experiment, the target named is T1, SHP2 (Homo sapiens, UniProt Q06124).
T1 sequence (Q06124 1-593): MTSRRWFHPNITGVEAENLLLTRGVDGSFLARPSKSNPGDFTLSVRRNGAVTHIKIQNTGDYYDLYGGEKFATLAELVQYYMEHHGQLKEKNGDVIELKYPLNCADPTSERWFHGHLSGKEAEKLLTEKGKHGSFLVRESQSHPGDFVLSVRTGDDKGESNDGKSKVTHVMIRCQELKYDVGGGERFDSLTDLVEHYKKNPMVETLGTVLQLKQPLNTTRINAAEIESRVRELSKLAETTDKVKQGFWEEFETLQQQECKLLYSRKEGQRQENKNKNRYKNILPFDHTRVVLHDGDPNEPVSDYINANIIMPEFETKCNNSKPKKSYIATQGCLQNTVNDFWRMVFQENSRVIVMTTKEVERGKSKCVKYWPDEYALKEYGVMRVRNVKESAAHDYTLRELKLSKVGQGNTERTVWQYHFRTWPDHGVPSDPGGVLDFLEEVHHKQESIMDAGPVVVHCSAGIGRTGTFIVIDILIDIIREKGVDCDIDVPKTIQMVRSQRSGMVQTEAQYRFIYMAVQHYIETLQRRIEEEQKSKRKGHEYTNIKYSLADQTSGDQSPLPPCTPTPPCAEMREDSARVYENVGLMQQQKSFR
In words: SHP2 allosteric inhibitor enzyme activity assay (DiFMUP fluorescence). Format: biochemical. Summed up:
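SHP2 activated by 0.5 μM IRS1_pY1172(dPEG8)pY1222 peptide, 0.2 ng enzyme per well, 1 h at room temperature with compound (1 μM top, 3-fold series), then DiFMUP substrate 1 h. Buffer: 60 mM HEPES, 75 mM NaCl, 75 mM KCl, 0.05% BRIJ-35, 1 mM EDTA, 5 mM DTT. Fluorescence ex 340/em 450 nm; IC50 by variable-slope fit.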

Experiment [1] has as its system lung cancer NCI-H358 cell. In words: Cell proliferation assay (CellTiter-Glo), NCI-H358. Format: cell-based. To be noted: Homo sapiens, NCI-H358, 96 hrs, CTG, read-out: Compound on NCI-H358 cell IC50. Put shortly: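 NCI-H358 cells were seeded at 2000 per well on ultra-low-attachment plates and exposed to compound (1000 nM down to 0.1524 nM, threefold steps) for 96 hrs at 37 °C. Viable cells were measured as ATP by CellTiter-Glo luminescence. Inhibition was computed against 0 nM and medium blanks, and IC50 from variable-slope fits.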

Turning to `Cn1c(N2CCC3(CC2)Cc2ccccc2[C@H]3N)nc2[nH]nc(C3(c4ccccc4)CC3)c2c1=O` [Example 1], the half-maximal inhibitory concentration (IC50) at SHP2 (class symbols) was ≤ 20 nM.

For the compound `N[C@@H]1c2ccccc2CC12CCN(c1nc3[nH]nc(C4(c5ccc(O)cc5)CC4)c3c(=O)[nH]1)CC2` [Example 234, (S)-6-(1-amino-1,3-dihydrospiro[indene-2,4′-piperidin]-1′-yl)-3-(1-(4-hydroxyphenyl)cyclopropyl)-1,5-dihydro-4H-pyrazolo[3,4-d]pyrimidin-4-one], at SHP2 (class symbols), the IC50 is ≤ 20 nM.

Regarding `N[C@@H]1c2ccccc2CC12CCN(c1nc3[nH]nc(C4(c5cccc(F)c5)CC4)c3c(=O)[nH]1)CC2` [Example 6, (S)-6-(1-amino-1,3-dihydrospiro[indene-2,4′-piperidin]-1′-yl)-3-(1-(3-fluorophenyl)cyclopropyl)-1,5-dihydro-4H-pyrazolo[3,4-d]pyrimidin-4-one], the results for the IC50 (in experiment [1] (numeric values); against SHP2 (numeric values)) were 8.6 nM and 0.62 nM, respectively.

With `N[C@@H]1c2ccccc2CC12CCN(c1nc3[nH]nc(C4(c5ccc6c(c5)OC(F)(F)O6)CC4)c3c(=O)[nH]1)CC2` [Example 13, (S)-6-(1-amino-1,3-dihydrospiro[indene-2,4′-piperidin]-1′-yl)-3-(1-(2,2-difluorobenzo[d][1,3]dioxol-5-yl)cyclopropyl)-1,5-dihydro-4H-pyrazolo[3,4-d]pyrimidin-4-one], the IC50 (in experiment [1] (class symbols); against SHP2 (class symbols)) was ≤ 20 nM in each case.

In the case of `N[C@@H]1c2ccccc2CC12CCN(c1nc3[nH]nc(C4(c5csnn5)CC4)c3c(=O)[nH]1)CC2` [Example 240, (S)-3-(1-(1,2,3-thiadiazol-4-yl)cyclopropyl)-6-(1-amino-1,3-dihydrospiro[indene-2,4′-piperidin]-1′-yl)-1,5-dihydro-4H-pyrazolo[3,4-d]pyrimidin-4-one], the half-inhibitory concentration (IC50) (in experiment [1] (class symbols); at SHP2 (class symbols)) was ≤ 20 nM each time.

With `N[C@@H]1c2ccccc2CC12CCN(c1nc3[nH]nc(C4(c5ccc(Cl)c(Cl)c5)CC4)c3c(=O)[nH]1)CC2` [Example 21, (S)-6-(1-amino-1,3-dihydrospiro[indene-2,4′-piperidin]-1′-yl)-3-(1-(3,4-dichlorophenyl)cyclopropyl)-1,5-dihydro-4H-pyrazolo[3,4-d]pyrimidin-4-one], the concentration for half-maximal inhibition (IC50) (in experiment [1] (class symbols); against SHP2 (class symbols)) was ≤ 20 nM each time.

In the case of `N[C@@H]1c2ccccc2CC12CCN(c1nc3[nH]nc(C4(c5ccc6c(c5)OCO6)CC4)c3c(=O)[nH]1)CC2` [Example 34, (S)-6-(1-amino-1,3-dihydrospiro[indene-2,4′-piperidin]-1′-yl)-3-(1-(benzo[d][1,3]dioxol-5-yl)cyclopropyl)-1,5-dihydro-4H-pyrazolo[3,4-d]pyrimidin-4-one], the values for the IC50 (in experiment [1] (class symbols); on SHP2 (numeric values)) were ≤ 20 nM and 2.7 nM, respectively.

Take `N[C@@H]1c2ccccc2CC12CCN(c1nc3[nH]nc(C4(c5cccs5)CC4)c3c(=O)[nH]1)CC2` [Example 24, (S)-6-(1-amino-1,3-dihydrospiro[indene-2,4′-piperidin]-1′-yl)-3-(1-(thiophen-2-yl)cyclopropyl)-1,5-dihydro-4H-pyrazolo[3,4-d]pyrimidin-4-one]: the values for the IC50 (in experiment [1] (class symbols); against SHP2 (numeric values)) were ≤ 20 nM and 1.6 nM, respectively.

`N[C@@H]1c2ccccc2CC12CCN(c1nc3[nH]nc(C4(c5ccccc5)CC4(F)F)c3c(=O)[nH]1)CC2` (stereo partly drawn) [Example 9, 6-((S)-1-amino-1,3-dihydrospiro[indene-2,4′-piperidin]-1′-yl)-3-(2,2-difluoro-1-phenylcyclopropyl)-1,5-dihydro-4H-pyrazolo[3,4-d]pyrimidin-4-one]: the IC50 (in experiment [1] (class symbols); at SHP2 (class symbols)) was ≤ 20 nM each time.

As for `N[C@@H]1c2ccccc2CC12CCN(c1nc3[nH]nc(C4(c5ccccc5)COC4)c3c(=O)[nH]1)CC2` [Example 96, (S)-6-(1-amino-1,3-dihydrospiro[indene-2,4′-piperidin]-1′-yl)-3-(3-phenyloxetan-3-yl)-1,5-dihydro-4H-pyrazolo[3,4-d]pyrimidin-4-one], the half-inhibitory concentration (IC50) in experiment [1] (class symbols) is > 60 nM; against SHP2 (class symbols) it was ≤ 20 nM.

In the case of `N[C@@H]1c2ccccc2CC12CCN(c1nc3[nH]nc(C4(c5ccc(F)cc5)CC4)c3c(=O)[nH]1)CC2` [Example 11, (S)-6-(1-amino-1,3-dihydrospiro[indene-2,4′-piperidin]-1′-yl)-3-(1-(4-fluorophenyl)cyclopropyl)-1,5-dihydro-4H-pyrazolo[3,4-d]pyrimidin-4-one], the IC50 in experiment [1] (numeric values) is 2.1 nM; against SHP2 (class symbols) it was ≤ 20 nM.

Regarding `N#Cc1ccc(C2(c3n[nH]c4nc(N5CCC6(CC5)Cc5ccccc5[C@H]6N)[nH]c(=O)c34)CC2)cc1` [Example 237, (S)-4-(1-(6-(1-amino-1,3-dihydrospiro[indene-2,4′-piperidin]-1′-yl)-4-oxo-4,5-dihydro-1H-pyrazolo[3,4-d]pyrimidin-3-yl)cyclopropyl)benzonitrile], the 50% inhibitory concentration (IC50) (in experiment [1] (class symbols); at SHP2 (class symbols)) was ≤ 20 nM in each case.

Regarding `Nc1ccc(C2(c3n[nH]c4nc(N5CCC6(CC5)Cc5ccccc5[C@H]6N)[nH]c(=O)c34)CC2)cc1` [Example 230, (S)-6-(1-amino-1,3-dihydrospiro[indene-2,4′-piperidin]-1′-yl)-3-(1-(4-aminophenyl)cyclopropyl)-1,5-dihydro-4H-pyrazolo[3,4-d]pyrimidin-4-one], at SHP2 (class symbols), the IC50 is ≤ 20 nM.

For the compound `N[C@@H]1c2ccccc2CC12CCN(c1nc3[nH]nc(C4(c5ccccc5)CC4)c3c(=O)[nH]1)CC2` [Example 33], the half-inhibitory concentration (IC50) was ≤ 20 nM in experiment [1] (class symbols) and 0.9 nM against SHP2 (numeric values).

As for `N[C@@H]1c2ccccc2CC12CCN(c1nc3[nH]nc(C4(c5cccc(C(F)(F)F)c5)CC4)c3c(=O)[nH]1)CC2` [Example 8, (S)-6-(1-amino-1,3-dihydrospiro[indene-2,4′-piperidin]-1′-yl)-3-(1-(3-(trifluoromethyl)plienyl)cyclo-propyl)-1,5-dihydro-4H-pyrazolo[3,4-d]pyrimidin-4-one], the half-inhibitory concentration (IC50) stood at 1.7 nM in experiment [1] (numeric values) and 2.2 nM on SHP2 (numeric values).

As for `N[C@@H]1c2ccccc2CC12CCN(c1nc3[nH]nc(C4(c5ccc(C(F)(F)F)cc5)CC4)c3c(=O)[nH]1)CC2` [Example 228, (S)-6-(1-amino-1,3-dihydrospiro[indene-2,4′-piperidin]-1′-yl)-3-(1-(4-(trifluoromethyl)phenyl)cyclo-propyl)-1,5-dihydro-4H-pyrazolo[3,4-d]pyrimidin-4-one], the 50% inhibitory concentration (IC50) in experiment [1] (class symbols) is 20 to 60 nM; against SHP2 (class symbols), ≤ 20 nM.
